Patent US8952024B2, “Herbicidal pyrimidone derivatives” (E I du Pont de Nemours and Company, priority 2009, dated 2015)

Key:
Format in all cases: in vivo
[1] = tested on: umbrella sedge (Cyperus difformis); assay: Test B flooded paddy test
Excerpt: (§1) Plant species in the flooded paddy test consisted of rice (Oryza sativa), umbrella sedge (Cyperus difformis), ducksalad (Heteranthera limosa) and barnyardgrass (Echinochloa crus-galli) grown to the 2-leaf stage for testing. At the time of treatment, test pots were flooded with water to 3 cm above the soil surface, treated by application of test compounds directly to the paddy water, and then maintained at that water depth for the duration of the test.
(§2) Treated plants and controls were maintained in a greenhouse for 13 to 15 days, after which time all treated plants were visually evaluated and compared to controls. Plant response ratings, summarized in Table B, are based on a scale of 0 to 100 where 0 is no effect and 100 is complete control. A dash (-) response means no test result.

[2] = tested on: rice (Oryza sativa); assay: Test B flooded paddy test
Excerpt: as §1, §2

[3] = tested on: barnyardgrass (Echinochloa crus-galli); assay: Test B flooded paddy test
Excerpt: as §1, §2

[4] = tested on: ducksalad (Heteranthera limosa); assay: Test B flooded paddy test
Excerpt: as §1, §2

[5] = tested on: giant foxtail (Setaria faberii); assay: Test A pre-/postemergence plant response
Excerpt: (§3) Seeds of barnyardgrass (Echinochloa crus-galli), large crabgrass (Digitaria sanguinalis), giant foxtail (Setaria faberii), morningglory (Ipomoea spp.), pigweed (Amaranthus retroflexus), velvetleaf (Abutilon theophrasti), wheat (Triticum aestivum) and corn (Zea mays) were planted into a blend of loam soil and sand and treated preemergence with a directed soil spray using test chemicals formulated in a non-phytotoxic solvent mixture which included a surfactant. At the same time these species were also treated with postemergence applications of test compounds formulated in the same manner.
(§4) Plants ranged in height from two to ten cm and were in the one- to two-leaf stage for the postemergence treatment. Treated plants and untreated controls were maintained in a greenhouse for approximately ten days, after which time all treated plants were compared to untreated controls and visually evaluated for injury. Plant response ratings, summarized in Table A, are based on a 0 to 100 scale where 0 is no effect and 100 is complete control. A dash (-) response means no test result.

[6] = tested on: velvetleaf (Abutilon theophrasti); assay: Test A pre-/postemergence plant response
Excerpt: as §3, §4

[7] = tested on: pigweed (Amaranthus retroflexus); assay: Test A pre-/postemergence plant response
Excerpt: as §3, §4

[8] = tested on: wheat (Triticum aestivum); assay: Test A pre-/postemergence plant response
Excerpt: as §3, §4

[9] = tested on: large crabgrass (Digitaria sanguinalis); assay: Test A pre-/postemergence plant response
Excerpt: as §3, §4

[10] = tested on: morningglory (Ipomoea spp.); assay: Test A pre-/postemergence plant response
Excerpt: as §3, §4

[11] = tested on: corn (Zea mays); assay: Test A pre-/postemergence plant response
Excerpt: as §3, §4

[12] = tested on: barnyardgrass (Echinochloa crus-galli); assay: Test A pre-/postemergence plant response
Excerpt: as §3, §4

[13] = Flood (flooded paddy test), 125 g ai/ha, scale 0 to 100, 0 is no effect, 100 is complete control, 13 to 15 days
[14] = Flood, 31 g ai/ha, scale 0 to 100 (0 no effect, 100 complete control)
[15] = Postemergence, 125 g ai/ha, 0 to 100 scale where 0 is no effect and 100 is complete control
[16] = Postemergence, 500 g ai/ha, visual injury, 0 to 100 scale (0 no effect, 100 complete control), approx. ten days
[17] = Preemergence, 125 g ai/ha, 0 to 100 scale, 0 = no effect, 100 = complete control
[18] = Preemergence, 500 g ai/ha, 0 to 100 scale, 0 = no effect, 100 = complete control

COCCOCCn1c(-c2cc(F)cc(F)c2)ncc(C(=O)C2=C(O)CCCC2=O)c1=O [Compound 171]
70: Sedge, Umbrella plant response rating [1, 14] | Plant response rating, Ducksalad [4, 13] | Plant response rating, Crabgrass, Large [9, 17] | Plant response rating, Barnyardgrass [12, 18]
80: Plant response rating, Sedge, Umbrella [1, 13] | Plant response rating, Foxtail, Giant [5, 18] | Plant response rating, Velvetleaf [6, 17] | Plant response rating, Pigweed [7, 18]
100: Plant response rating, Velvetleaf [6, 15] | Velvetleaf plant response rating [6, 16] | Plant response rating, Velvetleaf [6, 18] | Plant response rating, Pigweed [7, 15] | Pigweed plant response rating [7, 16] | Plant response rating, Crabgrass, Large [9, 18] | Plant response rating, Morningglory [10, 15] | Morningglory plant response rating [10, 16]
50: Plant response rating, Pigweed [7, 17] | Wheat plant response rating [8, 16] | Plant response rating, Barnyardgrass [12, 15]
30: Plant response rating, Foxtail, Giant [5, 17] | Plant response rating, Corn [11, 15]
40: Ducksalad plant response rating [4, 14] | Plant response rating, Wheat [8, 18] | Corn plant response rating [11, 16]
60: Plant response rating, Foxtail, Giant [5, 15] | Plant response rating, Crabgrass, Large [9, 15] | Plant response rating, Morningglory [10, 18]
90: Foxtail, Giant plant response rating [5, 16] | Crabgrass, Large plant response rating [9, 16] | Barnyardgrass plant response rating [12, 16]
20: Plant response rating, Barnyardgrass [3, 13] | Plant response rating, Wheat [8, 15] | Plant response rating, Wheat [8, 17] | Plant response rating, Corn [11, 18] | Plant response rating, Barnyardgrass [12, 17]
0: Plant response rating, Rice [2, 13] | Rice plant response rating [2, 14] | Barnyardgrass plant response rating [3, 14] | Plant response rating, Morningglory [10, 17] | Plant response rating, Corn [11, 17]
